“And” between values parts separate entries of the source, which are not always exact repeats. Identical values can stand only once.
Tests used:
Collagenase type IV = assay: Assay of Collagenase (DQ-gelatin fluorescence); assay type: biochemical; conditions: DQ-gelatin substrate
From the text: Collagenase type IV and DQ-gelatin was applied in this experiment, where DQ^198 (EnzChek Gelatinase/Collagenase Assay Kit, E-12055) is a kind of fluorescent material, which can bonded with gelatin to form DQ-gelatin. […] Thus, the principle of this experiment is that the activity of collagenase is examined by measuring emission intensity of DQ fluorescent as that the chemical bonding between DQ-gelatin can be enzymatically digested by collagenase.
The fluorescence intensity can be measured in a florescence micro-plate reader equipped with standard fluoresce in filters. Digested product from the DQ-gelatin and DQ collagen substrate has absorption wavelength at 495 nm and fluorescence emission wavelength at 515 nm. Therefore, the activity of collagenase can be determined when the fluorescence emission intensity at 515 nm larger than the blank. In other word, the resulting fluorescence emission intensity would decrease at 515 nm if the collagenase inhibitors were applied. The results of collagenase assay are provided on Table 7, and all values are present as Mean±S.E.M.

MMP-2 = assay: Gelatin zymography of HT-1080 supernatants, MMP-2; assay type: cell-based, human; conditions: HT-1080 supernatant; for Inhibitory effectiveness (%) MMP-2: 24 h; for IC50: gelatin zymography
From the text: (§1) HT-1080 cell line (ATCC:CCL-121) is a human skin fibroblasts tumor, which is a kind of adherent cell lines, secreting gelatinase, MMP-2 and MMP-9, to extracellular space.
(§2) Before carrying out any experimental process of HT-1080 cell lines, in order to enable HT-1080 cells to secrete more MMP-2 and MMP-9 to extracellular space, the medium RPMI-1640 containing 0.5% FBS (without phenol red) was applied when conducting the subcultivation process. After centrifugation, the medium RPMI-1640 containing only 0.5% FBS was added into centrifugal vials to resuspend the cells, and 20 μL of cell suspension solution was transferred into eppendorfs to mixed with 20 μL Trypan blue for cell dyeing. Finally, calculation of the cell concentration was accomplished by using hemocytometer through optical microscope.
(§3) Suitable amount of the medium RPMI-1640 (based on the cell concentration obtained previous) containing only 0.5% FBS (without phenol red) was applied into the remaining the cell suspension solution, as the resulting concentration of the cell suspension solution around 5×10^5 cells/mL. Afterwards, 500 μL of cell suspension solutions was transferred onto 24-well cell culture plates, followed by 24 hours incubation at 37° C. for the further experiments.
(§4) To evaluation the inhibitory effectiveness of gelatinase of 4GX and 4G, a gelatin zymography is needed to be conducted.
(§5) The cell suspension solution (with concentration about 5×10^5 cells/mL) of the previous cell pre-treatment process was placed to a 24-well cell culture plates for 24 hours of incubation at 37° C. Subsequently, 1 μL of the solutions, containing 4GX and 4G, in different concentrations from 10 to 100 μM (10, 20, 50, 100 μM) were applied into each well respectively as vehicle controls, 1 μL of catechin in concentration of 100 μM was applied into the well as a positive control, whereas the well applied without any compounds is as blank, followed by 24 hours of incubation at 37° C. Afterwards, the plate was placed into ice to terminate the reaction, the supernatant of each well were taken out separately for the further experiments.
(§6) Supernatants and two volume of a sample loading dye (500 mM Tris-HCL, 25% Glycerol, 10% SDS, 0.32% Bromophenol blue, pH 6.8) and one volume of a dye were mixed together to use as the indicator of running end point. Afterwards, the enzyme activity was analyzed by polyacrylamide gel electrophoresis (PAGE).
(§7) 1% of gelatin and 10% of polyacrylamide were contained in the gel of PAGE, where gelatin acts as the substrate for gelatinase (pro MMP-2, MMP-2 and pro MMP-9). The running buffer was 25 mM Tris-base, 192 mM […] and 0.1% sodium dodecyl sulfate (SDS), pH 8.3, and the power supply was 125 V/80 mA.
(§8) Following the electrophoresis, the gel was washed with 2.5% Triton X-100 at 24° C. twice in 30 minutes to remove the dye and SDS from the gel. Afterwards, the gel was incubated with a reacting buffer (50 mM Tris-base, 200 mM NaCl, 5 mM CaCl2 and 0.02% Brij 35, pH 7.5) at 37° C. for 24 hours in a thermostatic cabinet, enabling gelatinase enzymatically react with gelatin. The fixing solution (7% acetic acid and 40% methanol) was subsequently applied to the gel for 30 minutes, in order to secure the proteins onto the gel. After 30 minutes, the gel was stained with Brilliant Blue G-Colloidial, and then destained with the destain solution (10% acetic acid and 40% methanol) for visualization of the gelatinase reactive positions against the background of the gel.
(§9) Finally, the gel was then analyzed by image analysis system (Vilber Lounmat, France), and the analysis software was Bio-1 Dversion 99. Setting the blank as reference, setting as 1, and the other groups are presented in relative values in contrast to blank.
(§10) The formula for calculating the inhibitory effectiveness is presented below. The results of gelatin zymography are provided on Table 6, and all values are presented as Mean±S.E.M. (the values of blank−vehicle controls)×100%

[1] = Transdermal penetration test, Franz-type diffusion cell; assay type: in vitro ADME, mice; conditions: for Average (μg) amount of 4G in the skins: average of three
From the text: Franz-type diffusion cell is the apparatus for this experiment, where its structure as a set of vertical double-diffusion and detachable glass containers. The upper donor chamber is a hollow cylindrical for the sample injection, and the bottom of the upper donor chamber has a contacting surface. The lower receptor chamber is double-layered hollow cylindrical diffusion container, where the inner layer of the receptor chamber made of glass contains a fluid for sampling, the outer layer of the receptor chamber is filled with circulating water kept at 37±1° C. for the human body simulation. The contact area between the donor chamber and the receptor chamber is 0.785 cm^2 (the actual penetration area), and the intermediate is fixed with nude and white mice (all three) skins (epidermis facing upwards) by metal clips as the in vitro transdermal penetration barriers.
The experimental method is presented below. First, 4G was dissolved in 30 wt % propylene glycol aqueous solution, followed transferring 0.5 mL of the aqueous solution (containing 0.25 mg) of 4G into the donor chamber of the Franz-type diffusion cell, and top of the open-ended donor chamber was covered with Parafilm® tightly, and the inner receptor chamber was filled with 5.5 mL of the buffer solution (30 wt % ethanol, phosphate buffer solution, pH 7.4), with continuously stirring at 600 rpm. 0.3 mL of the buffer solution was respectively sampled at time points of 1, 2, 4, 6, 8, 10, 12, 24, 36, and 48 hours, and with complete replacement of 0.3 mL of the buffer solution to keep fluid in the diffusion cell the same volume. Finally, the final compound of 4G accumulated in the fluid of the receptor chamber, was analyzed by liquid chromatography tandem mass spectrometry (LC-MS) to investigate the amount of the 4G penetrating through skins and reaching to the blood vessel,
After completing the previous experimental step, the compound, 4G, on the surface of nude and white mice skin were washed with deionized water. Afterwards, the skins were trimmed into the circles with diameter equal to the donor chamber, and following record the skin weight. The skins then placed in homogenizer with 1 mL alcohol at speed 300 rpm for 5 minutes, and followed with centrifugation process at 10000 rpm for 5 minutes. The supernatant was filtered by 0.45 μm PVDF and quantified the content of 4G by LC-MS.

HT-1080 cell lines = assay: MTT cell viability assay; assay type: cell-based, human; conditions: HT-1080, 22 h + 2 h MTT, blank = 100, mean ± S.E.M.
From the text: as §1, §2, §3
To test the cytotoxicity of 4GX and 4G to HT-1080 cell lines, the cell viability assay need to be conducted. MTT cell viability assay was chosen for this experiment.
The principle of a cell viability assay is the conversion of a yellow tetrazolium salt (MTT; 3-(4,5-Dimethylthiazol-2-yl)-2,5-diphenyl tetrazolium bromide) into a purple product formazan via […] in intact mitochondria, where formazan can be dissolved in dimethylsulfoxide (DMSO). Thus, the increasing yield of resulting product formazan stands for increasing the percentage of cell vitality.
The cell suspension solution (with concentration about 5×10^5 cells/mL) of the previous cell pre-treatment process was placed to a 24-well cell culture plates with 24 hours of incubation under 5% of CO2/air at 37° C. in 70% of humidity, in order to allow cells to grow adherent on the well. After 24 hours of incubation, 1 μL of the solutions containing chemical compounds, 4GX and 4G, prepared in different concentrations (5-100 μM) were applied into each well respectively as vehicle controls, whereas the well applied without any chemical compounds as blank. Finally, the 24-well cell culture plate was placed in incubator for 22 hours of incubation.
Subsequently, the following steps need to avoid the light. After 22 hours of incubation, 50 μL of 5.5 mg/mL MTT was applied in each well for 2 hours of incubation at 37° C. Afterwards, the supernatant was removed from 24-well cell culture plates, and 400 μL DMSO was applied to dissolve the purple product formazan for 15 minutes by shaker at 50 rpm. 150-200 μL of the solution were taken out from each well to examine the adsorption value by ELISA at wavelength 550 nm.
The formula for calculation of cell vitality is presented following: (Adsorption value of vehicle control/blank)×100%

pro MMP-9 = assay: Gelatin zymography of HT-1080 supernatants, pro MMP-9; assay type: cell-based, human; conditions: HT-1080 supernatant; for Inhibitory effectiveness (%) pro MMP-9: 24 h; for IC50: gelatin zymography
From the text: as §1, §2, §3, §4, §5, §6, §7, §8, §9, §10

pro MMP-2 = assay: Gelatin zymography of HT-1080 supernatants, pro MMP-2; assay type: cell-based, human; conditions: HT-1080 supernatant; for Inhibitory effectiveness (%) Pro MMP-2: 24 h; for IC50: gelatin zymography
From the text: as §1, §2, §3, §4, §5, §6, §7, §8, §9, §10

| Compound | Inhibitory effectiveness % (collagenase) (Collagenase type IV; 20 μM) | Inhibitory effectiveness % (collagenase) (Collagenase type IV; 40 μM) | Inhibitory effectiveness (%) MMP-2 (MMP-2; 10 μM) | Inhibitory effectiveness (%) MMP-2 (MMP-2; 20 μM) | Inhibitory effectiveness (%) MMP-2 (MMP-2; 50 μM) | IC50 (MMP-2) | Vitality (%) (HT-1080 cell lines; 10 μM) | Vitality (%) (HT-1080 cell lines; 20 μM) | Vitality (%) (HT-1080 cell lines; 50 μM) | Vitality (%) (HT-1080 cell lines; 100 μM) | Inhibitory effectiveness (%) pro MMP-9 (pro MMP-9; 10 μM) | Inhibitory effectiveness (%) pro MMP-9 (pro MMP-9; 20 μM) | Inhibitory effectiveness (%) pro MMP-9 (pro MMP-9; 50 μM) | Inhibitory effectiveness (%) pro MMP-9 (pro MMP-9; 100 μM) | IC50 (pro MMP-9) | Inhibitory effectiveness (%) Pro MMP-2 (pro MMP-2; 10 μM) | Inhibitory effectiveness (%) Pro MMP-2 (pro MMP-2; 20 μM) | Inhibitory effectiveness (%) Pro MMP-2 (pro MMP-2; 50 μM) | Inhibitory effectiveness (%) Pro MMP-2 (pro MMP-2; 100 μM) | IC50 (pro MMP-2) | further results |
| --- | --- | --- | --- | --- | --- | --- | --- | --- | --- | --- | --- | --- | --- | --- | --- | --- | --- | --- | --- | --- | --- |
| c1cnc2c(c1)ccc1cccnc12 [1, 10-phenanthroline, reference compound] | 12.80% | 38.41% |  |  |  |  |  |  |  |  |  |  |  |  |  |  |  |  |  |  |  |
| O=C(OC[C@H]1O[C@@H](OC(=O)c2cc(O)c(O)c(O)c2)[C@H](OC(=O)c2cc(O)c(O)c(O)c2)[C@@H](OC(=O)c2cc(O)c(O)c(O)c2)[C@@H]1O)c1cc(O)c(O)c(O)c1 [4G, 1,2,3,6-tetra-O-galloyl-β-D-glucose] | 50% and 52.12% | 61.73% | 29.93% | 48.07% | 73.27% | 23 µM | 93.45 ± 4.91% | 87.30 ± 1.93% | 93.06 ± 4.41% | 87.81 ± 7.83% | 18.73% | 28.70% | 44.13% | 53.50% | > 100 µM | 10.13% | 16.80% | 30.13% | 39.40% | 99.6 µM | accumulated amounts of 4G of the fluid in the receptor chamber ([1]; nude and white mice skins, sampled 1 to 48 hours, LC-MS): nearly zero; Percentage of 4G in the mouse skins ([1]; nude mice skin): 27.84%; Average (μg) amount of 4G in the skins ([1]; nude mice skin): 1.17 ± 0.21 µg; The amount of 4G in the skins ([1]; nude mice skin, single samples, 0.25 mg in donor chamber, after 48 hours): 1.42 µg and 1.02 µg and 1.09 µg; Percentage of 4G in the mouse skins ([1]; white mice skin): 74.84%; Average (μg) amount of 4G in the skins ([1]; white mice skin): 6.07 ± 2.43 µg |
| O=C(OCC1OC(OC(=O)c2cc(O)c(O)c(O)c2)C(OC(=O)c2cc(O)c(O)c(O)c2)C(OC(=O)c2cc(O)c(O)c(O)c2)C1OC(=O)c1ccc(O)cc1)c1cc(O)c(O)c(O)c1 [4GX, 1,2,3,6-tetra-O-galloyl-4-O-(4-hydroxybenzoyl)-β-D-glucopyranoside] |  |  | 25.46% | 63.57% | 76.20% | 16.3 µM | 97.18 ± 6.52% | 100.78 ± 4.06% | 105.48 ± 2.18% | 94.31 ± 9.76% | 3.80% | 15.83% | 32.17% | 45.47% | > 100 µM | 15.83% | 31.53% | 62.30% |  | 30 µM |  |
| catechin [reference compound] |  |  |  |  |  |  |  |  |  |  |  |  |  | 64.30% and 76.07% |  |  |  |  | 56.30% and 72.97% |  | Inhibitory effectiveness (%) MMP-2 (MMP-2; 100 μM): 86.77% and 85.00% |

— patent publication US8486898B2, “Compounds and method for inhibiting the activity of gelatinase and collagenase” (Taipei Medical University (TMU), priority 2010, dated 2013)
